Columns and labels:
Test in all cases: NCI one-dose SRB growth inhibition
Assay type in all cases: cell-based
786-0 = settings: Homo sapiens, Renal Cancer, 48 h, read-out: GI% 786-0
Summary of the method: (§1)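 Drug exposure lasted 48 h. Viability and proliferation were then scored with sulforhodamine B, per the National Cancer Institute screening protocol.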

A498 = settings: Homo sapiens, Renal Cancer, 48 h, read-out: GI% A498
Summary of the method: as §1

CCRF-CEM = settings: Homo sapiens, Leukemia, 48 h, read-out: GI% CCRF-CEM
Summary of the method: as §1

COLO 205 = settings: Homo sapiens, Colon Cancer, 48 h, read-out: GI% COLO 205
Summary of the method: as §1

DU-145 = settings: Homo sapiens, Prostate, 48 h, read-out: GI% DU-145
Summary of the method: as §1

HCT-15 = settings: Homo sapiens, HCT-15, 48 h, Colon Cancer, read-out: GI% HCT-15
Summary of the method: as §1

HL-60(TB) = settings: Homo sapiens, Leukemia, 48 h, read-out: GI% HL-60(TB)
Summary of the method: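 SRB-based cell growth/viability measurement after a 48-hour compound treatment, carried out under the NCI Drug Evaluation Branch method.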

HOP-92 = settings: Homo sapiens, Non-Small Cell Lung Cancer, 48 h, read-out: GI% HOP-92
Summary of the method: as §1

HS 578T = settings: Homo sapiens, Breast Cancer, 48 h, read-out: GI% HS 578T
Summary of the method: as §1

HT29 = settings: Homo sapiens, HT-29, 48 h, Colon Cancer, read-out: GI% HT29
Summary of the method: as §1

KM12 = settings: Homo sapiens, Colon Cancer, 48 h, read-out: GI% KM12
Summary of the method: as §1

MALME-3M = settings: Homo sapiens, Melanoma, 48 h, read-out: GI% MALME-3M
Summary of the method: as §1

MDA-MB-435 = settings: Homo sapiens, Melanoma, 48 h, read-out: GI% MDA-MB-435
Summary of the method: as §1

MOLT-4 = settings: Homo sapiens, Leukemia, 48 h, read-out: GI% MOLT-4
Summary of the method: as §1

NCI-H226 = settings: Homo sapiens, Non-Small Cell Lung Cancer, 48 h, read-out: GI% NCI-H226
Summary of the method: as §1

NCI-H23 = settings: Homo sapiens, Non-Small Cell Lung Cancer, 48 h, read-out: GI% NCI-H23
Summary of the method: as §1

NCI-H322M = settings: Homo sapiens, Non-Small Cell Lung Cancer, 48 h, read-out: GI% NCI-H322M
Summary of the method: as §1

NCI-H460 = settings: Homo sapiens, Non-Small Cell Lung Cancer, 48 h, read-out: GI% NCI-H460
Summary of the method: as §1

NCI-H522 = settings: Homo sapiens, NCI-H522, 48 h, Non-Small Cell Lung Cancer, read-out: GI% NCI-H522
Summary of the method: as §1

NCI/ADR-RES = settings: Homo sapiens, Ovarian Cancer, 48 h, read-out: GI% NCI/ADR-RES
Summary of the method: as §1

OVCAR-4 = settings: Homo sapiens, Ovarian Cancer, 48 h, read-out: GI% OVCAR-4
Summary of the method: as §1

OVCAR-8 = settings: Homo sapiens, Ovarian Cancer, 48 h, read-out: GI% OVCAR-8
Summary of the method: as §1

RXF 393 = settings: Homo sapiens, Renal Cancer, 48 h, read-out: GI% RXF 393
Summary of the method: as §1

SF-268 = settings: Homo sapiens, CNS Cancer, 48 h, read-out: GI% SF-268
Summary of the method: as §1

SF-295 = settings: Homo sapiens, CNS Cancer, 48 h, read-out: GI% SF-295
Summary of the method: as §1

SF-539 = settings: Homo sapiens, CNS Cancer, 48 h, read-out: GI% SF-539
Summary of the method: as §1

SK-MEL-28 = settings: Homo sapiens, Melanoma, 48 h, read-out: GI% SK-MEL-28
Summary of the method: as §1

SK-MEL-2 = settings: Homo sapiens, Melanoma, 48 h, read-out: GI% SK-MEL-2
Summary of the method: as §1

SNB-19 = settings: Homo sapiens, CNS Cancer, 48 h, read-out: GI% SNB-19
Summary of the method: as §1

SNB-75 = settings: Homo sapiens, CNS Cancer, 48 h, read-out: GI% SNB-75
Summary of the method: as §1

SW-620 = settings: Homo sapiens, Colon Cancer, 48 h, read-out: GI% SW-620
Summary of the method: as §1

TK-10 = settings: Homo sapiens, Renal Cancer, 48 h, read-out: GI% TK-10
Summary of the method: as §1

UACC-257 = settings: Homo sapiens, UACC-257, read-out: GI% UACC-257, Melanoma, 48 h
Summary of the method: as §1

SMILES	inhibition at 10 µM (786-0) [%]	inhibition at 10 µM (A498) [%]	inhibition at 10 µM (CCRF-CEM) [%]	inhibition at 10 µM (COLO 205) [%]	inhibition at 10 µM (DU-145) [%]	inhibition at 10 µM (HCT-15) [%]	inhibition at 10 µM (HL-60(TB)) [%]	inhibition at 10 µM (HOP-92) [%]	inhibition at 10 µM (HS 578T) [%]	inhibition at 10 µM (HT29) [%]	inhibition at 10 µM (KM12) [%]	inhibition at 10 µM (MALME-3M) [%]	inhibition at 10 µM (MDA-MB-435) [%]	inhibition at 10 µM (MOLT-4) [%]	inhibition at 10 µM (NCI-H226) [%]	inhibition at 10 µM (NCI-H23) [%]	inhibition at 10 µM (NCI-H322M) [%]	inhibition at 10 µM (NCI-H460) [%]	inhibition at 10 µM (NCI-H522) [%]	inhibition at 10 µM (NCI/ADR-RES) [%]	further results
Cc1nc(-c2ccc(Cl)cc2)ccc1NC(=O)Nc1cccc(C(F)(F)F)c1 [Compound 5e, 1-(6-(4-Chlorophenyl)-2-methylpyridin-3-yl)-3-(3-(trifluoromethyl)phenyl)urea]	< 10	< 10	22	< 10	< 10	18	21	< 10	< 10	25	< 10	< 10	< 10	12	< 10	< 10	< 10	34	48	< 10	inhibition at 10 µM (OVCAR-4): < 10%; inhibition at 10 µM (OVCAR-8): < 10%; inhibition at 10 µM (RXF 393): < 10%; inhibition at 10 µM (SF-268): < 10%; inhibition at 10 µM (SF-295): < 10%; inhibition at 10 µM (SF-539): < 10%; inhibition at 10 µM (SK-MEL-28): < 10%; inhibition at 10 µM (SK-MEL-2): < 10%; inhibition at 10 µM (SNB-19): < 10%; inhibition at 10 µM (SNB-75): < 10%; inhibition at 10 µM (SW-620): 11%; inhibition at 10 µM (TK-10): < 10%; inhibition at 10 µM (UACC-257): < 10%
COc1ccc(NC(=O)Nc2ccc(-c3ccc(Cl)cc3)nc2C)cc1 [Compound 5f, 1-(6-(4-Chlorophenyl)-2-methylpyridin-3-yl)-3-(4-methoxyphenyl) urea]	< 10	< 10	18	< 10	< 10	< 10	12	< 10	< 10	23	< 10	< 10	< 10	14	19	< 10	< 10	< 10	40	< 10	inhibition at 10 µM (OVCAR-4): < 10%; inhibition at 10 µM (OVCAR-8): < 10%; inhibition at 10 µM (RXF 393): 21%; inhibition at 10 µM (SF-268): < 10%; inhibition at 10 µM (SF-295): < 10%; inhibition at 10 µM (SF-539): < 10%; inhibition at 10 µM (SK-MEL-28): 13%; inhibition at 10 µM (SK-MEL-2): < 10%; inhibition at 10 µM (SNB-19): < 10%; inhibition at 10 µM (SNB-75): < 10%; inhibition at 10 µM (SW-620): < 10%; inhibition at 10 µM (TK-10): < 10%; inhibition at 10 µM (UACC-257): 26%
Cc1nc(-c2ccc(Cl)cc2)ccc1NC(=O)Nc1ccc2c(c1)OCO2 [Compound 5g, 1-(Benzo[d][1,3]dioxol-5-yl)-3-(6-(4-chlorophenyl)-2-methylpyridin-3-yl)urea]	< 10	< 10	< 10	< 10	< 10	< 10	24	< 10	< 10	11	< 10	< 10	< 10	18	< 10	< 10	< 10	< 10	38	< 10	inhibition at 10 µM (OVCAR-4): < 10%; inhibition at 10 µM (OVCAR-8): < 10%; inhibition at 10 µM (RXF 393): < 10%; inhibition at 10 µM (SF-268): < 10%; inhibition at 10 µM (SF-295): < 10%; inhibition at 10 µM (SF-539): < 10%; inhibition at 10 µM (SK-MEL-28): < 10%; inhibition at 10 µM (SK-MEL-2): < 10%; inhibition at 10 µM (SNB-19): < 10%; inhibition at 10 µM (SNB-75): < 10%; inhibition at 10 µM (SW-620): < 10%; inhibition at 10 µM (TK-10): < 10%; inhibition at 10 µM (UACC-257): 25%
Cc1nc(-c2cccs2)ccc1NC(=O)Nc1ccc(F)cc1 [Compound 5h, 1-(4-Fluorophenyl)-3-(2-methyl-6-(thiophen-2-yl)pyridin-3-yl)urea]	< 10	< 10	10	< 10	< 10	26	15	< 10	< 10	12	18	< 10	< 10	29	< 10	16	< 10	< 10	39	< 10	inhibition at 10 µM (OVCAR-4): < 10%; inhibition at 10 µM (OVCAR-8): < 10%; inhibition at 10 µM (RXF 393): < 10%; inhibition at 10 µM (SF-268): < 10%; inhibition at 10 µM (SF-295): < 10%; inhibition at 10 µM (SF-539): < 10%; inhibition at 10 µM (SK-MEL-28): < 10%; inhibition at 10 µM (SK-MEL-2): 24%; inhibition at 10 µM (SNB-19): < 10%; inhibition at 10 µM (SNB-75): < 10%; inhibition at 10 µM (SW-620): < 10%; inhibition at 10 µM (TK-10): < 10%; inhibition at 10 µM (UACC-257): 20%
Cc1nc(-c2cccs2)ccc1NC(=O)Nc1ccc(Cl)cc1 [Compound 5i, 1-(4-Chlorophenyl)-3-(2-methyl-6-(thiophen-2-yl)pyridin-3-yl)urea]	< 10	< 10	< 10	< 10	< 10	< 10	20	< 10	< 10	< 10	< 10	< 10	< 10	15	< 10	< 10	< 10	< 10	28	< 10	inhibition at 10 µM (OVCAR-4): < 10%; inhibition at 10 µM (OVCAR-8): < 10%; inhibition at 10 µM (RXF 393): < 10%; inhibition at 10 µM (SF-268): < 10%; inhibition at 10 µM (SF-295): < 10%; inhibition at 10 µM (SF-539): < 10%; inhibition at 10 µM (SK-MEL-28): < 10%; inhibition at 10 µM (SK-MEL-2): < 10%; inhibition at 10 µM (SNB-19): < 10%; inhibition at 10 µM (SNB-75): < 10%; inhibition at 10 µM (SW-620): < 10%; inhibition at 10 µM (TK-10): < 10%; inhibition at 10 µM (UACC-257): 23%

Source: publication PMC6366416, “Synthesis and in vitro anticancer activity of certain novel 1-(2-methyl-6-arylpyridin-3-yl)-3-phenylureas as apoptosis-inducing agents” (Journal of Enzyme Inhibition and Medicinal Chemistry, 2019)
